Laboratory results taken from ChEMBL document CHEMBL1201862, “PubChem BioAssay data set” (2004).
Counter-ions that a name gives are not always drawn.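 How tested: cells in 96-well plates exposed to compound for 48 hours at five concentrations. The concentration for 50% growth inhibition is given as GI50.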 Calls of active or inactive are those of the source. No stated cut-off is given here; in the data, active = GI50 up to about 1.1 µM and inactive = higher.

Key:
Experiment in all cases: DTP human tumour cell line panel, 48 h
786-0 = tested on: 786-0
BT-549 = tested on: BT-549
CCRF-CEM = tested on: CCRF-CEM
DU-145 = tested on: DU-145
HCC 2998 = tested on: HCC 2998
HOP-62 = tested on: HOP-62
HT-29 = tested on: HT-29
KM12 = tested on: KM12
MCF7 = tested on: MCF7
MDA-MB-435 = tested on: MDA-MB-435
MOLT-4 = tested on: MOLT-4
PC-3 = tested on: PC-3
RPMI-8226 = tested on: RPMI-8226
SF-295 = tested on: SF-295
SK-OV-3 = tested on: SK-OV-3
SW-620 = tested on: SW-620
TK-10 = tested on: TK-10
UACC-257 = tested on: UACC-257
UACC-62 = tested on: UACC-62
UO-31 = tested on: UO-31

SMILES | GI50 (786-0) | GI50 (BT-549) | GI50 (CCRF-CEM) | GI50 (DU-145) | GI50 (HCC 2998) | GI50 (HOP-62) | GI50 (HT-29) | GI50 (KM12) | GI50 (MCF7) | GI50 (MDA-MB-435) | GI50 (MOLT-4) | GI50 (PC-3) | GI50 (RPMI-8226) | GI50 (SF-295) | GI50 (SK-OV-3) | GI50 (SW-620) | GI50 (TK-10) | GI50 (UACC-257) | GI50 (UACC-62) | GI50 (UO-31)
O=C(O)c1cc2ccccc2c(S(=O)(=O)O)c1O | > 100 µM (inactive) | > 100 µM (inactive) | > 100 µM (inactive) | > 100 µM (inactive) | > 100 µM (inactive) | > 100 µM (inactive) | > 100 µM (inactive) | > 100 µM (inactive) | > 100 µM (inactive) | > 100 µM (inactive) | > 100 µM (inactive) | > 100 µM (inactive) | > 100 µM (inactive) | > 100 µM (inactive) | > 100 µM (inactive) | > 100 µM (inactive) | > 100 µM (inactive) | > 100 µM (inactive) | > 100 µM (inactive) | > 100 µM (inactive)
COc1ccccc1NC(=S)N/N=C/c1cccc(C)n1 | 2.9 µM (inactive) | 15.1 µM (inactive) | 0.422 µM (active) | 4.29 µM (inactive) | 10.5 µM (inactive) | 5.85 µM (inactive) | 4.17 µM (inactive) | 6.25 µM (inactive) | 3.78 µM (inactive) | 5.16 µM (inactive) | 1.34 µM (inactive) | 4.5 µM (inactive) | 2.11 µM (inactive) | 4.32 µM (inactive) | 6.55 µM (inactive) | 3.14 µM (inactive) | 8.99 µM (inactive) | 3.33 µM (inactive) | 3.67 µM (inactive) | 3.57 µM (inactive)
CCN(CC)CCNc1ccc(C)c2sc3ccccc3c(=O)c12 [LUCANTHONE HYDROCHLORIDE] | 3.02 µM (inactive) | 4.36 µM (inactive) | 1.91 µM (inactive) | 6.67 µM (inactive) | 3.64 µM (inactive) | 6.5 µM (inactive) | 1.67 µM (inactive) | 3.09 µM (inactive) | 2.39 µM (inactive) | 2.04 µM (inactive) | 1.27 µM (inactive) | 2.03 µM (inactive) | 1.9 µM (inactive) | 2.18 µM (inactive) | 6.71 µM (inactive) | 1.76 µM (inactive) | 3.72 µM (inactive) | 1.66 µM (inactive) | 1.84 µM (inactive) | 1.57 µM (inactive)
O=[N+]([O-])c1ccc(/N=N\c2c(O)ccc3ccccc23)c([N+](=O)[O-])c1 | > 100 µM (inactive) | > 100 µM (inactive) | 29.4 µM (inactive) | > 100 µM (inactive) | > 100 µM (inactive) | > 100 µM (inactive) | > 100 µM (inactive) | > 100 µM (inactive) | > 100 µM (inactive) | > 100 µM (inactive) | 70.6 µM (inactive) | > 100 µM (inactive) | > 83.4 µM (inactive) | > 100 µM (inactive) | > 100 µM (inactive) | > 100 µM (inactive) | > 90.4 µM (inactive) | > 100 µM (inactive) | > 100 µM (inactive) | > 100 µM (inactive)
CCC(C)C(N)C(=O)N/N=C\c1c2c(nc3ccccc13)-c1cc3c(c(=O)n1C2)COC(=O)[C@]3(O)CC (stereo not given in full) | 0.0361 µM (active) | 0.174 µM (active) | < 0.01 µM (active) | 0.0158 µM (active) | 0.36 µM (active) | 0.0113 µM (active) | 0.69 µM (active) | 0.925 µM (active) | < 0.01 µM (active) | 0.468 µM (active) | < 0.01 µM (active) | 0.387 µM (active) | 0.142 µM (active) | 0.043 µM (active) | 0.0528 µM (active) | 0.127 µM (active) | 4.02 µM (inactive) | 0.467 µM (active) | < 0.01 µM (active) | 0.12 µM (active)
N#C/C(=C\c1c[nH]c2ccccc12)C(=O)c1ccc(O)c(O)c1 | 22.8 µM (inactive) | 11.1 µM (inactive) | 5.87 µM (inactive) | 27.4 µM (inactive) | 32.5 µM (inactive) | 19.2 µM (inactive) | 28 µM (inactive) | 27.7 µM (inactive) | 12 µM (inactive) | 20.8 µM (inactive) | 12.4 µM (inactive) | 33.8 µM (inactive) | 15.4 µM (inactive) | 14.6 µM (inactive) | 43.5 µM (inactive) | 32.7 µM (inactive) | 51.2 µM (inactive) | 50.7 µM (inactive) | 28.8 µM (inactive) | 6.85 µM (inactive)
COc1ccc(C(=O)c2ccc(-n3cc(/C=C/[N+](=O)[O-])c4ccccc43)cc2)cc1 | 3.52 µM (inactive) | 15.5 µM (inactive) | 2.58 µM (inactive) | 21.5 µM (inactive) | 20.9 µM (inactive) | 16.1 µM (inactive) | 23.9 µM (inactive) | 20.7 µM (inactive) | 9.08 µM (inactive) | 16.2 µM (inactive) | 4.81 µM (inactive) | 18.8 µM (inactive) | 3.08 µM (inactive) | 47.9 µM (inactive) | 23.6 µM (inactive) | 3.69 µM (inactive) | 6.3 µM (inactive) | 10.2 µM (inactive) | 14.4 µM (inactive) | 19.5 µM (inactive)
